Like-named read-outs stand apart in the source and are kept apart here.
Key:
[1] = system: TNFα; experiment: Cot Monocyte TNFα Cell Based Assay
[2] = biological target: Human Cot (Homo sapiens (Human), UniProt P41279); experiment: High Throughput Cot Biochemical Assay
[3] = Homo sapiens, Monocyte, read-out: EC50 TNF, LPS-stimulated human monocytes, TNFα
[4] = IC50 HTRF, Cot HTRF (TR-FRET) biochemical assay
[5] = Homo sapiens, Monocyte, read-out: EC50 TNF, LPS-stimulated human monocytes, TNFα TR-FRET
[6] = IC50 HTRF, Cot HTRF (TR-FRET KinEASE) biochemical assay, 400 μM ATP
[7] = read-out: EC50 TNF, LPS-stimulated human monocytes, TNFα TR-FRET
[8] = read-out: IC50 HTRF, Cot HTRF (TR-FRET KinEASE) biochemical assay, 400 μM ATP
[9] = read-out: EC50 TNF, LPS-stimulated human monocytes, TNFα
[10] = read-out: IC50 HTRF, Cot HTRF (TR-FRET) biochemical assay

Chain of Human Cot (P41279 30-397): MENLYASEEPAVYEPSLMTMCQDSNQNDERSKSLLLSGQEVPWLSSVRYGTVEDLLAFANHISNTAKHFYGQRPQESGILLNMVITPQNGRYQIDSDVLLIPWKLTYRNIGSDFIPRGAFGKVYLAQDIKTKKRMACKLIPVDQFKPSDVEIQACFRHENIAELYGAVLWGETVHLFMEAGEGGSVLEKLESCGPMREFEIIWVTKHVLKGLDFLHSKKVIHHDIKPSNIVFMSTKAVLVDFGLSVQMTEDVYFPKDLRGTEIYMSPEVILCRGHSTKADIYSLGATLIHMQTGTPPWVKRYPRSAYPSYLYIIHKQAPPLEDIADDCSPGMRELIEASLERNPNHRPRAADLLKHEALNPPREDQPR

| SMILES | EC50 [1, 3] | IC50 [2, 4] | further results |
| --- | --- | --- | --- |
| Cc1nc(F)ccc1[C@H](Nc1cc(Cl)c2ncc(C#N)c(NCC(C)(C)C)c2c1)c1cn(CC(F)F)nn1 [Example 532, (S)-8-chloro-6-(((1-(2,2-difluoroethyl)-1H-1,2,3-triazol-4-yl)(6-fluoro-2-methyl-pyridin-3-yl)methyl)amino)-4-(neopentyl-amino)quinoline-3-carbonitrile] | 78 nM | 3 nM | – |
| N#Cc1cnc2c(Cl)cc(N[C@H](c3c[nH]nn3)c3csc4c3CCN(C3COC3)C4)cc2c1Nc1ccc(Cl)c(Cl)c1F [Example 222, (S)-8-chloro-4-((3,4-dichloro-2-fluorophenyl)amino)-6-(((6-(oxetan-3-yl)-4,5,6,7-tetrahydrothieno[2,3-c]pyridin-3-yl)(1H-1,2,3-triazol-4-yl)methyl)amino)quinoline-3-carbonitrile] | 739 nM | 19 nM | – |
| Cc1ncsc1[C@H](Nc1cc(C#N)c2ncc(C#N)c(NCC(C)(C)C)c2c1)c1cn(C2(C(F)F)CC2)nn1 [Example 640, (R)-6-(((1-(1-(difluoromethyl)-cyclopropyl)-1H-1,2,3-triazol-4-yl)(4-methylthiazol-5-yl)methyl)amino)-4-(neopentylamino)quinoline-3,8-dicarbonitrile] | 65 nM | 3 nM | – |
| CC(C)(C)CNc1c(C#N)cnc2c(C#N)cc(N[C@H](c3cn(C4(C(F)F)CC4)nn3)c3cccc4c(=O)[nH]ccc34)cc12 [Example 876, (S)-6-(((1-(1-(difluoromethyl)cyclopropyl)-1H-1,2,3-triazol-4-yl)(1-oxo-1,2-dihydroisoquinolin-5-yl)methyl)amino)-4-(neopentylamino)quinoline-3,8-dicarbonitrile] | – | – | EC50 [1, 5]: 385 nM; IC50 [2, 6]: 2 nM |
| Cc1nc(F)ccc1[C@H](Nc1cc(Cl)c2ncc(C#N)c(NCC(C)(C)C)c2c1Br)c1nnn(C2(C(F)F)CC2)c1F [Example 975, (S)-5-bromo-8-chloro-6-(((1-(1-(difluoromethyl)cyclopropyl)-5-fluoro-1H-1,2,3-triazol-4-yl)(6-fluoro-2-methylpyridin-3-yl)methyl)amino)-4-(neopentylamino)quinoline-3-carbonitrile] | – | – | EC50 [1, 5]: 1000 nM; IC50 [2, 6]: 1230 nM |
| CC(C)(C)CNc1c(C#N)cnc2c(C#N)cc(N[C@H](c3cn(C4(C(F)(F)F)CC4)nn3)c3cccc4c3CNC4)cc12 [Example 451, (S)-6-((isoindolin-4-yl(1-(1-(trifluoro-methyl)cyclopropyl)-1H-1,2,3-triazol-4-yl)methyl)amino)-4-(neopentylamino)-quinoline-3,8-dicarbonitrile] | 138 nM | 3 nM | – |
| Cc1nc(F)ccc1[C@H](Nc1cc(Cl)c2ncc(C#N)c(NCC(C)(C)C)c2c1)c1cn(C2(C(=O)N3CCOCC3)CC2)nn1 [Example 555, (S)-8-chloro-6-(((6-fluoro-2-methylpyridin-3-yl)(1-(1-(morpholine-4-carbonyl)cyclopropyl)-1H-1,2,3-triazol-4-yl)methyl)amino)-4-(neopentylamino)quinoline-3-carbonitrile] | 208 nM | 7 nM | – |
| CC(C)n1cc([C@@H](Nc2cc(Cl)c3ncc(C#N)c(N[C@H](c4ccccc4)C(C)(C)O)c3c2)c2cccnc2)nn1 [Example 202, 8-chloro-4-(((R)-2-hydroxy-2-methyl-1-phenylpropyl)amino)-6-(((S)-(1-isopropyl-1H-1,2,3-triazol-4-yl)(pyridin-3-yl)methyl)amino)quinoline-3-carbonitrile] | > 10000 nM | > 10000 nM | – |
| Cn1ccc2c([C@H](Nc3cc(Cl)c4ncc(C#N)c(NCC(C)(C)C)c4c3)c3cn(C4(C)CCC4)nn3)cccc2c1=O [Example 800, (S)-8-chloro-6-(((2-methyl-1-oxo-1,2-dihydroiso-quinolin-5-yl)(1-(1-methylcyclobutyl)-1H-1,2,3-triazol-4-yl)methyl)amino)-4-(neopentylamino)quinoline-3-carbonitrile] | – | – | EC50 [1, 7]: 25 nM; IC50 [2, 8]: 2 nM |
| CC(C)(C)N1CCC(n2cc([C@@H](Nc3cc(Cl)c4ncc(C#N)c(Nc5ccc(Cl)c(Cl)c5F)c4c3)c3cccnc3)nn2)CC1 [Example 260, (S)-6-(((1-(1-(tert-butyl)piperidin-4-yl)-1H-1,2,3-triazol-4-yl)(pyridin-3-yl)methyl)amino)-8-chloro-4-((3,4-dichloro-2-fluorophenyl)amino)-quinoline-3-carbonitrile] | 126 nM | 6 nM | – |
| CC(C)(C)CNc1c(C#N)cnc2c(C#N)cc(N[C@H](c3cn(C4(C(F)(F)F)CC4)nn3)c3cccc4ncccc34)cc12 [Example 469, (S)-4-(neopentylamino)-6-((quinolin-5-yl(1-(1-(trifluoromethyl)-cyclopropyl)-1H-1,2,3-triazol-4-yl)methyl)amino)quinoline-3,8-dicarbonitrile] | 69 nM | 4 nM | – |
| COc1c([C@@H](Nc2cc(Cl)c3ncc(C#N)c(NCC(C)(C)C)c3c2)c2ccc(F)nc2C)nnn1C1(C(F)F)CC1 [Example 965, (S)-8-chloro-6-(((1-(1-(difluoromethyl)cyclopropyl)-5-methoxy-1H-1,2,3-triazol-4-yl)(6-fluoro-2-methylpyridin-3-yl)methyl)amino)-4-(neopentylamino)quinoline-3-carbonitrile] | – | – | EC50 [1, 5]: 78 nM; IC50 [2, 6]: 4 nM |
| CC(C)(CNc1c(C#N)cnc2c(C#N)cc(N[C@H](c3cn(C45CC(C4)C5)nn3)c3cccc4ncccc34)cc12)C(F)(F)F [Example 897, (S)-6-(((1-(bicyclo[1.1.1]pentan-1-yl)-1H-1,2,3-triazol-4-yl)(quinolin-5-yl)methyl)amino)-4-((3,3,3-trifluoro-2,2-dimethylpropyl)amino)quinoline-3,8-dicarbonitrile] | – | – | EC50 [1, 5]: 18 nM; IC50 [2, 6]: 2 nM |
| CC(C)(C)CNc1c(C#N)cnc2c(Cl)cc(N[C@H](c3cn(C4(C#N)CC4)nn3)c3cccc4ncccc34)cc12 [Example 567, (S)-8-chloro-6-(((1-(1-cyanocyclopropyl)-1H-1,2,3-triazol-4-yl)(quinolin-5-yl)methyl)amino)-4-(neopentylamino)-quinoline-3-carbonitrile] | 66 nM | 2 nM | – |
| Cc1ncsc1[C@H](Nc1cc(Cl)c2ncc(C#N)c(Nc3ccc(F)c(Cl)c3)c2c1)c1cn(C(C)C)nn1 [Example 306, (R)-8-chloro-4-((3-chloro-4-fluorophenyl)amino)-6-(((1-isopropyl-1H-1,2,3-triazol-4-yl)(4-methylthiazol-5-yl)methyl)amino)quinoline-3-carbonitrile] | 202 nM | 6 nM | – |
| Cn1ccc2c([C@H](Nc3cc(C#N)c4ncc(C#N)c(NCC(C)(C)C)c4c3)c3cn(C(CF)CF)nn3)cccc2c1=O [Example 880, (S)-6-(((1-(l,3-difluoropropan-2-yl)-1H-1,2,3-triazol-4-yl)(2-methyl-1-oxo-1,2-dihydroisoquinolin-5-yl)methyl)amino)-4-(neopentylamino)quinoline-3,8-dicarbonitrile] | – | – | EC50 [1, 7]: 80 nM; IC50 [2, 8]: 3 nM |
| CC(C)(C)CNc1c(C#N)cnc2c(Cl)cc(N[C@@H](c3cn(C4CC4)nn3)c3csc4c3CCN(C3COC3)C4)cc12 [Example 81, (R)-8-chloro-6-(((1-cyclopropyl-1H-1,2,3-triazol-4-yl)(6-(oxctan-3-yl)-4,5,6,7-tetrahydrothieno[2,3-c]pyridin-3-yl)methyl)amino)-4-(neopentylamino)-quinoline-3-carbonitrile] | – | – | EC50 [1, 9]: > 1000 nM; IC50 [2, 10]: 400 nM |
| CC[C@@H](Nc1c(C#N)cnc2c(Cl)cc(N[C@@H](c3cccnc3)c3cn(CCF)nn3)cc12)c1ccccc1 [Example 177, 8-chloro-6-(((S)-(1-(2-fluoroethyl)-1H-1,2,3-triazol-4-yl)(pyridin-3-yl)methyl)amino)-4-(((R)-1-phenylpropyl)amino)quinoline-3-carbonitrile] | 79 nM | 2 nM | – |
| N#Cc1cnc2c(Cl)cc(N[C@@H](c3cccnc3)c3cn(CCN4CCOCC4)nn3)cc2c1Nc1ccc(F)c(Cl)c1 [Example 335, (S)-8-chloro-4-((3-chloro-4-fluorophenyl)amino)-6-(((1-(2-morpholinoethyl)-1H-1,2,3-triazol-4-yl)(pyridin-3-yl)methyl)amino)-quinoiine-3-carbonitrile] | – | – | EC50 [1, 9]: 405 nM; IC50 [2, 10]: 10 nM |
| CCCN1CCC(n2cc([C@@H](Nc3cc(Cl)c4ncc(C#N)c(Nc5ccc(F)c(Cl)c5)c4c3)c3cncs3)nn2)CC1 [Example 373, (R)-8-chloro-4-((3-chloro-4-fluorophenyl)amino)-6-(((1-(1-propylpiperidin-4-yl)-1H-1,2,3-triazol-4-yl)(thiazol-5-yl)methyl)amino)-quinoline-3-carbonitrile] | 81 nM | 3 nM | – |
| CC(C)(C)CNc1c(C#N)cnc2c(Cl)cc(N[C@H](c3cn(C4CC4)nn3)c3cccc4cccnc34)cc12 [Example 450, (S)-8-chloro-6-(((1-cyclopropyl-1H-1,2,3-triazol-4-yl)(quinolin-8-yl)methyl)amino)-4-(neopentylamino)quinoline-3-carbonitrile] | 356 nM | 20 nM | – |
| Cc1nc(F)ccc1[C@H](Nc1cc(Cl)c2ncc(C#N)c(NCC(C)(C)C)c2c1)c1cn(C(C)(C)C(F)F)nn1 [Example 545, (S)-8-chloro-6-(((1-(1,1-difluoro-2-methylpropan-2-yl)-1H-1,2,3-triazol-4-yl)(6-fluoro-2-methylpyridin-3-yl)methyl)-amino)-4-(neopentylamino)quinoline-3-carbonitrile] | 108 nM | 4 nM | – |

Source: patent US11066414B2, “Cot modulators and methods of use thereof” (Gilead Sciences, Inc., priority 2015, dated 2021)
